{"source": "patent EP0098136A2", "about": "“Primary and secondary alcohol dehydrogenase enzymes and the use thereof” (priority 1982, dated 1984)", "key": {"[1]": {"test_system": "secondary alcohol dehydrogenase enzyme", "assay": "Substrate and cofactor specificity of the purified enzyme", "assay_type": "biochemical, Pseudomonas fluorescens NRRL B-1244", "conditions": "for oxidation rate / activity as substrate (in words): purified enzyme, NAD^+", "protocol": "The rate of dehydrogenation of the primary and secondary alcohols tested was measured with a fluorescence spectrophotometer by following the formation of reduced NAD^+ (excitation at 340 nm, emission at 460 nm). […] The reaction was initiated by the addition of the substrate alcohol. The product aldehydes or ketones were identified by retention time comparisons and cochromatography with authentic standards using flame ionization gas chromatography (a stainless steel column was maintained isothermally at 110 °C). Specific oxidation rates were expressed as nmoles of product formed per min. per mg of protein.\nThe purified enzyme from step 5 of Example 2 was used in the procedure of Example 1 to oxidize primary and secondary alcohols, diols and aldehydes. The specificity of the dehydrogenase for the substrates is expressed as nmoles of product formed per min. per 85 µg of protein and as a percentage relative to the oxidation rate of 2-propanol (designated as 100% oxidation rate) in Table V."}, "[2]": {"test_system": "secondary alcohol dehydrogenase enzyme", "assay": "Inhibition of secondary alcohol dehydrogenase activity (oxidation of 2-propanol in the presence of potential inhibitors)", "assay_type": "biochemical, Pseudomonas fluorescens NRRL B-1244", "protocol": "The activity of the NAD^+-linked secondary alcohol dehydrogenase in each fraction was measured using a fluorescence spectrophotometer by monitoring the formation of reduced NAD^+ (excitation at 340 nm, emission at 460 nm). The assay system (3 ml) contained 150 µmole sodium phosphate buffer pH 7.0, 1.0 µmole NAD^+, a given amount of enzyme fraction, and 20 µ cmole 2-propanol substrate. […] Protein concentrations in each fraction were determined by the method of O.H. Lowry et al., J. Biol. Chem., 193, 255 (1951).\nThe oxidation of 2-propanol by the purified extract of secondary alcohol dehydrogenase enzyme was conducted in the presence of a lmM concentration of one of the metal chelating agents and thio-reagents listed in Table VI."}, "[3]": {"test_system": "secondary alcohol dehydrogenase"}, "[4]": {"test_system": "secondary alcohol dehydrogenase enzyme", "assay_type": "biochemical, Pseudomonas fluorescens NRRL B-1244", "protocol": "The effect of NAD^+ and 2-propanol concentrations on the enzyme activity was studied at 25 °C in 0.05 M sodium phosphate buffer pH 7.0. 2-Propanol was kept at a saturated level (6.6 mM) for the determination of the Km value for NAD^+; and NAD^+ was maintained at a saturated level (lmM) for determining the Km value for 2-propanol."}, "[5]": {"conditions": "1 mM inhibitor, oxidation of 2-propanol by purified enzyme"}}, "note": "Entries after “also recorded” stand apart in the source; their conditions may differ. Where two headings read alike, the source gives them in different places."}
{"smiles": "CC(O)CCO", "note": "(stereo not shown) [1,3-butanediol]", "values": [{"measurement": "oxidation rate / activity as substrate (in words)", "setting": "[1]", "result": "highest activity"}]}
{"smiles": "c1cnc2c(c1)ccc1cccnc12", "note": "[1,10-phenanthroline]", "values": [{"measurement": "% Inhibition", "setting": "[2]; [5]", "result": 100, "unit": "%"}]}
{"smiles": "CCC(C)O", "note": "(stereo not shown) [2-butanol]", "values": [{"measurement": "oxidation rate / activity as substrate (in words)", "setting": "[1]", "result": "highest oxidation rate; also recorded: highest activity"}, {"measurement": "% of original activity", "setting": "[3]; 0.9 M 2-butanol solution", "result": 40, "unit": "%"}, {"measurement": "% of its activity", "setting": "[3]; 1.1 M 2-butanol solution", "result": 30, "unit": "%"}]}
{"smiles": "CC(C)O", "note": "[2-propanol]", "values": [{"measurement": "Km", "setting": "[4]; pH 7, read-out: Km value for 2-propanol", "result": 85, "unit": "µM"}, {"measurement": "oxidation rate / activity as substrate (in words)", "setting": "[1]", "result": "highest activity"}]}
{"smiles": "O=C(O)c1cc(SSc2ccc([N+](=O)[O-])c(C(=O)O)c2)ccc1[N+](=O)[O-]", "note": "[5,5'-dithiobis-(2-nitrobenzoate)]", "values": [{"measurement": "inhibition of enzyme activity (in words)", "setting": "[2]", "result": "inhibited"}, {"measurement": "% Inhibition", "setting": "[2]; [5]", "result": 100, "unit": "%"}]}
{"smiles": "O=[N+]([O-])c1ccc(O)c2ncccc12", "note": "[5-nitro-8-hydroxyquinoline]", "values": [{"measurement": "inhibition of enzyme activity (in words)", "setting": "[2]", "result": "inhibited"}, {"measurement": "% Inhibition", "setting": "[2]; [5]", "result": 100, "unit": "%"}]}
{"smiles": "[Cu+2]", "note": "[Cu^2+]", "values": [{"measurement": "% Inhibition", "setting": "[2]; [5]", "result": 10, "unit": "%"}]}
{"smiles": "[Hg+2]", "note": "[Hg^2+]", "values": [{"measurement": "% Inhibition", "setting": "[2]; [5]", "result": 100, "unit": "%"}]}
{"smiles": "CCN1C(=O)C=CC1=O", "note": "[N-ethylmaleimide]", "values": [{"measurement": "% Inhibition", "setting": "[2]; [5]", "result": 33, "unit": "%"}]}
{"smiles": "NC(=O)c1ccc[n+]([C@@H]2O[C@H](COP(=O)([O-])OP(=O)(O)OC[C@H]3O[C@@H](n4cnc5c(N)ncnc54)[C@H](OP(=O)(O)O)[C@@H]3O)[C@@H](O)[C@H]2O)c1", "note": "[NADP^+]", "values": [{"measurement": "oxidation rate with NADP^+ as cofactor relative to NAD^+", "setting": "[1]; NADP^+ as cofactor", "result": "about 50%"}]}
{"smiles": "NC(=O)c1ccc[n+]([C@@H]2O[C@H](COP(=O)([O-])OP(=O)(O)OC[C@H]3O[C@@H](n4cnc5c(N)ncnc54)[C@H](O)[C@@H]3O)[C@@H](O)[C@H]2O)c1", "note": "[NAD^+, nicotinamide adenine dinucleotide]", "values": [{"measurement": "Km", "setting": "[4]; 25°C, 0.05 M sodium phosphate buffer pH 7.0, 2-propanol saturated (6.6 mM), read-out: Km value for NAD^+", "result": 8.2, "unit": "µM"}]}
{"smiles": "CC(N)=O", "note": "[acetamide]", "values": [{"measurement": "% Inhibition", "setting": "[2]; [5]", "result": 0, "unit": "%"}]}
{"smiles": "CC(C)=O", "note": "[acetone]", "values": [{"measurement": "rate of reduction of acetone to propanol relative to the forward reaction", "setting": "[1]", "result": "about 20%"}]}
{"smiles": "O=C(O)CN(CCN(CC(=O)O)CC(=O)O)CC(=O)O", "note": "[ethylenediamine tetraacetic acid (EDTA), ethylenediamine tetraacetic acid]", "values": [{"measurement": "% Inhibition", "setting": "[2]; [5]", "result": 0, "unit": "%"}]}
{"smiles": "c1c[nH]cn1", "note": "[imidazole]", "values": [{"measurement": "% Inhibition", "setting": "[2]; [5]", "result": 0, "unit": "%"}]}
{"smiles": "O=C(O)CI", "note": "[iodoacetic acid]", "values": [{"measurement": "% Inhibition", "setting": "[2]", "result": 0, "unit": "%"}]}
{"smiles": "O=C(O)c1cc[c]([Hg+])cc1.[OH-]", "note": "[p-hydroxymercuribenzoate]", "values": [{"measurement": "inhibition of enzyme activity (in words)", "setting": "[2]", "result": "inhibited"}, {"measurement": "% Inhibition", "setting": "[2]; [5]", "result": 100, "unit": "%"}]}
{"smiles": "NNC(N)=S", "note": "[thiosemicarbazide]", "values": [{"measurement": "% Inhibition", "setting": "[2]; [5]", "result": 44, "unit": "%"}]}
{"smiles": "c1ccc(-c2ccccn2)nc1", "note": "[α,α'-dipyridyl]", "values": [{"measurement": "% Inhibition", "setting": "[2]; [5]", "result": 40, "unit": "%"}]}
